The target in one experiment is T1, SCD5 (Homo sapiens, UniProt Q86SK9).
T1 construct: host or cells: S. cerevisiae ole1Δ strain (W303 pdr1Δ pdr3Δ background), plasmid pRS316 with TDH3 promoter and CYC1 terminator
T1 sequence (Q86SK9 1-330): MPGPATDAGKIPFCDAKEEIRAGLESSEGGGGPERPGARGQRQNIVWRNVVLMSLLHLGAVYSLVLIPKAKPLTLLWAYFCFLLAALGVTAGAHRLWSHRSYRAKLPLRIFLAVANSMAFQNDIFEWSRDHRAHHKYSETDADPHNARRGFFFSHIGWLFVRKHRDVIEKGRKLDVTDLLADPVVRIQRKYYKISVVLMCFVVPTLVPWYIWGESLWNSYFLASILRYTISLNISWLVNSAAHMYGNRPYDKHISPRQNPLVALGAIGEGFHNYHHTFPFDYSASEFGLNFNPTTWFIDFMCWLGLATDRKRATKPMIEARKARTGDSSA
Briefly: Growth inhibition of humanized yeast strain expressing SCD5 as sole desaturase. In kind it is cell-based. The conditions noted are these: humanized yeast strain expressing SCD5. In outline:
(§1)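 OD600 growth read-out. ole1Δ yeast, pdr1Δ pdr3Δ, with Ole1/SCD1/SCD5 on a plasmid; SX-Ura media throughout; 2× cell density 0.02 in CSM-Galactose; DMSO compound dilutions; humidified 30° C.; Ole1 stopped at 24 h, SCD1/SCD5 at 40 h.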

For another experiment, the target named is T2, Ole1 (Saccharomyces cerevisiae, UniProt P21147).
T2 construct: expressed in transfected cells; host or cells: S. cerevisiae ole1Δ strain (W303 pdr1Δ pdr3Δ background), plasmid pRS316 with TDH3 promoter and CYC1 terminator
T2 sequence (P21147 1-510): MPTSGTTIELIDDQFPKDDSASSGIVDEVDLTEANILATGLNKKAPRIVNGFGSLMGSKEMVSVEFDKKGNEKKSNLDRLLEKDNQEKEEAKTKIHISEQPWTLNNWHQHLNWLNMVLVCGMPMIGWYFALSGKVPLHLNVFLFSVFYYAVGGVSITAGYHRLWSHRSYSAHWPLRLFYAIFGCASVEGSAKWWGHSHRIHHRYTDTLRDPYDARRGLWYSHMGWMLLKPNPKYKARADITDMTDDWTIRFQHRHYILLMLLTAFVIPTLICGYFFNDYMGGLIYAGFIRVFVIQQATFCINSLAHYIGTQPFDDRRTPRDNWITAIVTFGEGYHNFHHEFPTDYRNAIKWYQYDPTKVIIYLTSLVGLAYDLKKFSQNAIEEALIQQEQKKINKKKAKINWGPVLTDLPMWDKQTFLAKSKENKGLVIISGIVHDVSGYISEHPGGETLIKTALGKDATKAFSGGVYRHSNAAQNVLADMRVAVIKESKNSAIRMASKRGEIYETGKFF
Briefly: Growth inhibition of yeast strain expressing Ole1 as sole desaturase. Type of experiment: cell-based. As to conditions: yeast strain expressing Ole1 as sole desaturase. In outline:
as §1

The target of the next experiment is T3, SCD1 (Homo sapiens, UniProt O00767).
T3 construct: host or cells: S. cerevisiae ole1Δ strain (W303 pdr1Δ pdr3Δ background), plasmid pRS316 with TDH3 promoter and CYC1 terminator
T3 sequence (O00767 1-359): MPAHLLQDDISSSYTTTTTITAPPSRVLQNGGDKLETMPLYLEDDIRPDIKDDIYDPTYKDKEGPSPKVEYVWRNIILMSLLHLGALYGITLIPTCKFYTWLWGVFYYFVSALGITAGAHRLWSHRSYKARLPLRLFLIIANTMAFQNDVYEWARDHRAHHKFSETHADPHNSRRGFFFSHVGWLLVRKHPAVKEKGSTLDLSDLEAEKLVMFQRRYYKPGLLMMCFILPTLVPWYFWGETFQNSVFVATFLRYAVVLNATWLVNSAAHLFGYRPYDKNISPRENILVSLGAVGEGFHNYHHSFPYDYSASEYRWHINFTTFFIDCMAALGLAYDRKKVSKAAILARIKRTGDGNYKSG
In words: Growth inhibition of humanized yeast strain expressing SCD1 as sole desaturase. Type of experiment: cell-based. The conditions noted are these: humanized yeast strain expressing SCD1. The method, boiled down: as §1

Experiment [1] has as its system yeast strains expressing the human α-synuclein. Briefly: Yeast α-synuclein toxicity rescue assay (OD600 growth). As to conditions: 40 h; for EC50: read-out: α-Syn EC50; for Emax: read-out: α-Syn Emax.

SMILES strings stand for the structures. “And” between values parts separate entries of the source, which are not always exact repeats. Equal entries are not always repeated. Where only a bound is given, the exact number is not on record here.

With `COc1ccc(-c2noc(C3CCN(C(=O)c4ccc(C(C)C)cc4)CC3)n2)cc1OC` [Compound 127], on SCD5, the IC50 (in general, the midpoint of a concentration-inhibition curve) is > 45 µM and the “SCD5 % Max Inhibition” value is given as 88.59%. On Ole1, the IC50 was > 45 µM and the “OLE1 % Max Inhibition” value is listed as 99.27%. Further, on SCD1, the IC50 was > 45 µM and the “SCD1 % Max Inhibition” value worked out at 66.46%. In experiment [1], the EC50 (usually the concentration at which the effect is half-maximal) was determined as 7.42 µM and the Emax turned out to be 349%.

On to `CCOc1ccc(-c2noc(C3CCN(C(=O)C(C)N4Cc5ccccc5C4=O)CC3)n2)cc1OC` (stereo not shown) [Compound 140], for which, at SCD5, the “SCD5 % Max Inhibition” value was 3.46% and 10.16%. Also, at Ole1, the IC50 is > 45 µM; the “OLE1 % Max Inhibition” value is 3.96% and 4.98%. At SCD1, the IC50 is > 45 µM; the “SCD1 % Max Inhibition” value is 77.37% and 75.00%. Further, in experiment [1], the EC50 amounted to 0.049 µM and the Emax turned out to be 322%.

Regarding `COc1ccc(-c2nnc(C3CCN(C(=O)CNC(=O)c4ccccc4)CC3)o2)cc1OC` [Compound 39], on SCD5, the IC50 is > 45 µM and the “SCD5 % Max Inhibition” value came out at 79.10%. Further, at Ole1, the IC50 was > 45 µM and the “OLE1 % Max Inhibition” value was 110.89%. Moreover, at SCD1, the IC50 is > 45 µM and the “SCD1 % Max Inhibition” value was found to be 77.01%. Also, in experiment [1], the EC50 came out at 18.1 µM and the Emax was determined as 216%.

With `Cc1nn(C)c2cc(-c3noc(C4CCN(C(=O)CNC(=O)c5ccccc5)CC4)n3)cnc12` [Compound 137], at SCD5, the half-inhibitory concentration (IC50) was determined as 22.3 µM and the “SCD5 % Max Inhibition” value is 50.61%. Besides, at Ole1, the IC50 was > 45 µM and the “OLE1 % Max Inhibition” value is given as 96.83%. On SCD1, the IC50 was > 45 µM and the “SCD1 % Max Inhibition” value is on record as 90.19%. Further, in experiment [1], the EC50 came to 1.05 µM and the Emax turned out to be 376%.

Consider `Cc1nn(C)c2cc(-c3noc(C4CCN(C(=O)[C@@H]5CN(c6ccccc6)C(=O)O5)CC4)n3)ccc12` [Compound 149], for which, on SCD5, the IC50 was > 45 µM and the “SCD5 % Max Inhibition” value stood at 38.72%. At Ole1, the IC50 was > 45 µM and the “OLE1 % Max Inhibition” value was found to be 90.68%. At SCD1, the IC50 was > 45 µM and the “SCD1 % Max Inhibition” value was found to be 69.75%. Moreover, in experiment [1], the EC50 was 0.06 µM and the Emax is 458%.

Consider `CCOc1ccc(-c2noc(C3CCN(C(=O)C(CO)N4Cc5ccccc5C4=O)CC3)n2)cc1OC` (stereo not shown) [Compound 128], for which, at SCD5, the IC50 is > 45 µM; the “SCD5 % Max Inhibition” value is 1.89% and 3.32%. Further, on Ole1, the IC50 was > 45 µM; the “OLE1 % Max Inhibition” value was 81.43% and 60.60%. The half-inhibitory concentration (IC50) at SCD1 was > 45 µM. In addition, in experiment [1], the EC50 turned out to be 0.252 µM and the Emax turned out to be 306%.

Turning to `COc1ccc(-c2noc(C3CCN(C(=O)CNC(C)=O)CC3)n2)cc1OC` [Compound 46], at SCD5, the IC50 was > 45 µM and the “SCD5 % Max Inhibition” value is 72.35%. Further, at Ole1, the IC50 was > 45 µM and the “OLE1 % Max Inhibition” value is on record as 87.95%. Moreover, at SCD1, the IC50 is > 45 µM and the “SCD1 % Max Inhibition” value was 70.27%. Also, in experiment [1], the EC50 amounted to 10.9 µM and the Emax is 35%.

`Cc1nn(C)c2cc(-c3noc(C4CCN(C(=O)[C@H]5CC(=O)N(c6ccccc6)C5)CC4)n3)ccc12` [compound 90]: the IC50 against SCD5, against Ole1 and on SCD1 was > 45 µM throughout. In addition, in experiment [1], the EC50 is 1.65 µM. For the same compound, the Emax in experiment [1] came to 281%.

`CCOc1ccc(-c2noc(C3CCN(C(=O)CNC(=O)c4ccccc4)CC3)n2)nc1OC` [Compound 107]: on SCD5, the IC50 was > 45 µM and the “SCD5 % Max Inhibition” value was 74.80%. For the same compound, on Ole1, the IC50 is > 45 µM and the “OLE1 % Max Inhibition” value came out at 4.55%. Moreover, on SCD1, the IC50 is > 45 µM and the “SCD1 % Max Inhibition” value came out at 73.32%. In experiment [1], the EC50 was 2.9 µM and the Emax was found to be 312%.

(Values after US11873298B2, “Compounds and uses thereof” (JANSSEN PHARMACEUTICA NV, priority 2017, dated 2024).)
